Experimental data reported in patent US20240423207A1, “PICOLINAMIDE COMPOUNDS WITH FUNGICIDAL ACTIVITY” (CORTEVA AGRISCIENCE LLC, priority 2014, published 2024).
Read-outs that look alike come from different tables or passages of the source.

Assays:
[1] = test system: Mycosphaerella graminicola; Anamorph: Septoria tritici; assay: Leaf Blotch of Wheat (SEPTTR) fungicidal activity on wheat seedlings; assay type: in vivo; details: Zymoseptoria tritici, Low Volume, 121.5 g/H
Summary of the method: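 Compounds in acetone were diluted with nine volumes of water containing 110 ppm Triton X-100, or as EC formulations with 0.1% Trycol 5941 for track spray. They were sprayed on first-leaf Yuma wheat seedlings inoculated with S. tritici before or after treatment. Plants spent 1 day dark and 2–3 days lit at 100% RH, 20 °C. Severity (0–100%) was scored once untreated plants were fully diseased; control was computed relative to untreated plants.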

[2] = test system: Puccinia triticina; Synonym: Puccinia recondita f sp. tritici; assay: Wheat Brown Rust (PUCCRT) fungicidal activity on wheat seedlings; assay type: in vivo; details: Low Volume, 121.5 g/H
Summary of the method: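 Yuma wheat seedlings (first leaf emerged) were sprayed to run-off with compound in acetone/water 1:9 (110 ppm Triton X-100), and P. triticina spores were inoculated before or after treatment. Plants were kept overnight in a 22 °C dark dew room at 100% RH, then moved to a 24 °C greenhouse; % control was based on first-leaf severity (0–100%) versus untreated plants.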

[3] = 24 h, 1 Day Protectant, read-out: SEPTTR 1DP disease control
[4] = 72 h, 3 Day Curative, read-out: SEPTTR 3DC disease control
[5] = 24 h, 1 Day Protectant, read-out: PUCCRT 1DP disease control
[6] = 72 h, 3 Day Curative, read-out: PUCCRT 3DC disease control

Question: Which pest or weed control at 121.5 g/ha [1, 3] does the source give for `COc1ccnc(C(=O)N[C@@H](C)C(=O)O[C@@H](C)C(c2ccc(Cl)c(C)c2)c2ccc(Cl)c(C)c2)c1OCOC(C)=O` [Cmpd 203] here?
Answer: The pest or weed control at 121.5 g/ha was greater than 80%.

Question: And the pest or weed control at 121.5 g/ha [1, 4]?
Answer: The pest or weed control at 121.5 g/ha was greater than 80%.

Question: What about the pest or weed control at 121.5 g/ha [2, 5] of the same molecule?
Answer: The pest or weed control at 121.5 g/ha was greater than 80%.

Question: What about the pest or weed control at 121.5 g/ha [2, 6] of the same molecule?
Answer: The pest or weed control at 121.5 g/ha was less than 80%.

Question: Which pest or weed control at 121.5 g/ha [1, 3] does the source give for `COc1ccnc(C(=O)N[C@@H](C)C(=O)O[C@@H](C)[C@@H](c2ccccc2)c2ccc(F)cc2)c1OC(C)=O` [Cmpd 204] here?
Answer: Its pest or weed control at 121.5 g/ha is greater than 80%.

Question: What about the pest or weed control at 121.5 g/ha [1, 4] of the same molecule?
Answer: The pest or weed control at 121.5 g/ha was greater than 80%.

Question: What about the pest or weed control at 121.5 g/ha [2, 5] of the same molecule?
Answer: Its pest or weed control at 121.5 g/ha is greater than 80%.

Question: And the pest or weed control at 121.5 g/ha [2, 6]?
Answer: The pest or weed control at 121.5 g/ha was greater than 80%.

Question: For `COc1ccnc(C(=O)N[C@@H](C)C(=O)O[C@@H](C)C(c2ccc(Cl)c(C)c2)c2ccc(Cl)c(C)c2)c1OC(C)=O` [Cmpd 206], which pest or weed control at 121.5 g/ha [1, 3] is on record?
Answer: The pest or weed control at 121.5 g/ha was greater than 80%.

Question: And the pest or weed control at 121.5 g/ha [1, 4]?
Answer: Its pest or weed control at 121.5 g/ha is greater than 80%.

Question: And the pest or weed control at 121.5 g/ha [2, 5]?
Answer: Its pest or weed control at 121.5 g/ha is greater than 80%.

Question: What about the pest or weed control at 121.5 g/ha [2, 6] of the same molecule?
Answer: The pest or weed control at 121.5 g/ha was less than 80%.

Question: For `COc1ccnc(C(=O)N[C@@H](C)C(=O)O[C@@H](C)C(c2ccc(F)cc2)c2ccc(F)cc2)c1OC(=O)C(C)(C)C` [Cmpd 207], which pest or weed control at 121.5 g/ha [1, 3] is on record?
Answer: Its pest or weed control at 121.5 g/ha is greater than 80%.

Question: And the pest or weed control at 121.5 g/ha [1, 4]?
Answer: The pest or weed control at 121.5 g/ha was greater than 80%.

Question: What about the melting point of the same molecule?
Answer: Its melting point is 52 to 65 °C.

Question: Which pest or weed control at 121.5 g/ha [1, 3] does the source give for `COc1ccnc(C(=O)N[C@@H](C)C(=O)O[C@@H](C)C(c2ccc(F)cc2)c2ccc(F)cc2)c1OC(=O)C(C)C` [Cmpd 208] here?
Answer: The pest or weed control at 121.5 g/ha was greater than 80%.

Question: What about the pest or weed control at 121.5 g/ha [1, 4] of the same molecule?
Answer: The pest or weed control at 121.5 g/ha was greater than 80%.

Question: And the pest or weed control at 121.5 g/ha [2, 5]?
Answer: The pest or weed control at 121.5 g/ha was greater than 80%.

Question: What about the pest or weed control at 121.5 g/ha [2, 6] of the same molecule?
Answer: The pest or weed control at 121.5 g/ha was less than 80%.

Question: Which pest or weed control at 121.5 g/ha [1, 3] does the source give for `COCCC(=O)Oc1c(OC)ccnc1C(=O)N[C@@H](C)C(=O)O[C@@H](C)C(c1ccc(F)cc1)c1ccc(F)cc1` [Cmpd 209] here?
Answer: Its pest or weed control at 121.5 g/ha is greater than 80%.

Question: What about the pest or weed control at 121.5 g/ha [1, 4] of the same molecule?
Answer: Its pest or weed control at 121.5 g/ha is greater than 80%.

Question: And the pest or weed control at 121.5 g/ha [2, 5]?
Answer: Its pest or weed control at 121.5 g/ha is greater than 80%.

Question: And the pest or weed control at 121.5 g/ha [2, 6]?
Answer: Its pest or weed control at 121.5 g/ha is less than 80%.

Question: With `COc1ccnc(C(=O)N[C@@H](C)C(=O)O[C@@H](C)C(c2ccc(F)cc2)c2ccc(F)cc2)c1OC(=O)C1CC1` [Cmpd 210] as the molecule, how does the pest or weed control at 121.5 g/ha [1, 3] read?
Answer: The pest or weed control at 121.5 g/ha was greater than 80%.

Question: What about the pest or weed control at 121.5 g/ha [1, 4] of the same molecule?
Answer: Its pest or weed control at 121.5 g/ha is greater than 80%.

Question: And the pest or weed control at 121.5 g/ha [2, 5]?
Answer: Its pest or weed control at 121.5 g/ha is greater than 80%.

Question: And the pest or weed control at 121.5 g/ha [2, 6]?
Answer: Its pest or weed control at 121.5 g/ha is less than 80%.

Question: For `COc1ccnc(C(=O)N[C@@H](C)C(=O)O[C@@H](C)C(c2ccc(F)cc2)c2ccc(F)cc2)c1OCOC(=O)C(C)C` [Cmpd 211], which pest or weed control at 121.5 g/ha [1, 3] is on record?
Answer: The pest or weed control at 121.5 g/ha was greater than 80%.

Question: What about the pest or weed control at 121.5 g/ha [1, 4] of the same molecule?
Answer: Its pest or weed control at 121.5 g/ha is greater than 80%.

Question: And the pest or weed control at 121.5 g/ha [2, 5]?
Answer: The pest or weed control at 121.5 g/ha was greater than 80%.

Question: What about the pest or weed control at 121.5 g/ha [2, 6] of the same molecule?
Answer: The pest or weed control at 121.5 g/ha was greater than 80%.

Question: With `CCOCC(=O)OCOc1c(OC)ccnc1C(=O)N[C@@H](C)C(=O)O[C@@H](C)C(c1ccc(F)cc1)c1ccc(F)cc1` [Cmpd 212] as the molecule, how does the pest or weed control at 121.5 g/ha [1, 3] read?
Answer: The pest or weed control at 121.5 g/ha was greater than 80%.

Question: What about the pest or weed control at 121.5 g/ha [1, 4] of the same molecule?
Answer: Its pest or weed control at 121.5 g/ha is greater than 80%.

Question: What about the pest or weed control at 121.5 g/ha [2, 5] of the same molecule?
Answer: Its pest or weed control at 121.5 g/ha is greater than 80%.

Question: What about the pest or weed control at 121.5 g/ha [2, 6] of the same molecule?
Answer: The pest or weed control at 121.5 g/ha was greater than 80%.

Question: Which pest or weed control at 121.5 g/ha [1, 3] does the source give for `CCCCC(=O)Oc1c(OC)ccnc1C(=O)N[C@@H](C)C(=O)O[C@@H](C)C(c1ccc(F)cc1)c1ccc(F)cc1` [Cmpd 213] here?
Answer: The pest or weed control at 121.5 g/ha was greater than 80%.

Question: And the pest or weed control at 121.5 g/ha [1, 4]?
Answer: The pest or weed control at 121.5 g/ha was greater than 80%.

Question: And the pest or weed control at 121.5 g/ha [2, 5]?
Answer: Its pest or weed control at 121.5 g/ha is less than 80%.

Question: And the pest or weed control at 121.5 g/ha [2, 6]?
Answer: The pest or weed control at 121.5 g/ha was less than 80%.

Question: What does the source list for `COc1ccnc(C(=O)N[C@@H](C)C(=O)O[C@@H](C)C(c2ccc(F)c(F)c2)c2ccc(F)c(F)c2)c1OC(C)=O` [Cmpd 215]?
Answer: pest or weed control at 121.5 g/ha [1, 3]: > 80%; pest or weed control at 121.5 g/ha [1, 4]: > 80%; pest or weed control at 121.5 g/ha [2, 5]: > 80%

Question: With `COc1ccnc(C(=O)N[C@@H](C)C(=O)O[C@@H](C)C(c2ccc(F)c(Cl)c2)c2ccc(F)c(Cl)c2)c1OC(C)=O` [Cmpd 216] as the molecule, how does the pest or weed control at 121.5 g/ha [1, 3] read?
Answer: The pest or weed control at 121.5 g/ha was greater than 80%.

Question: What about the pest or weed control at 121.5 g/ha [1, 4] of the same molecule?
Answer: The pest or weed control at 121.5 g/ha was less than 80%.

Question: And the pest or weed control at 121.5 g/ha [2, 5]?
Answer: Its pest or weed control at 121.5 g/ha is greater than 80%.

Question: And the pest or weed control at 121.5 g/ha [2, 6]?
Answer: The pest or weed control at 121.5 g/ha was less than 80%.

Question: With `COc1ccnc(C(=O)N[C@@H](C)C(=O)O[C@@H](C)C(c2ccc(F)c(C)c2)c2ccc(F)c(C)c2)c1OC(C)=O` [Cmpd 217] as the molecule, how does the pest or weed control at 121.5 g/ha [1, 3] read?
Answer: The pest or weed control at 121.5 g/ha was greater than 80%.

Question: What about the pest or weed control at 121.5 g/ha [1, 4] of the same molecule?
Answer: The pest or weed control at 121.5 g/ha was greater than 80%.

Question: What about the pest or weed control at 121.5 g/ha [2, 5] of the same molecule?
Answer: Its pest or weed control at 121.5 g/ha is greater than 80%.

Question: And the pest or weed control at 121.5 g/ha [2, 6]?
Answer: The pest or weed control at 121.5 g/ha was less than 80%.

Question: What does the source list for `COc1ccnc(C(=O)N[C@@H](C)C(=O)O[C@@H](C)C(c2ccc(F)c(F)c2)c2ccc(F)c(F)c2)c1OCOC(C)=O` [Cmpd 218]?
Answer: pest or weed control at 121.5 g/ha [1, 3]: > 80%; pest or weed control at 121.5 g/ha [1, 4]: > 80%; pest or weed control at 121.5 g/ha [2, 5]: > 80%; pest or weed control at 121.5 g/ha [2, 6]: < 80%

Question: For `COc1ccnc(C(=O)N[C@@H](C)C(=O)O[C@@H](C)C(c2ccc(F)c(Cl)c2)c2ccc(F)c(Cl)c2)c1OCOC(C)=O` [Cmpd 219], which pest or weed control at 121.5 g/ha [1, 3] is on record?
Answer: The pest or weed control at 121.5 g/ha was greater than 80%.

Question: And the pest or weed control at 121.5 g/ha [1, 4]?
Answer: The pest or weed control at 121.5 g/ha was greater than 80%.

Question: And the pest or weed control at 121.5 g/ha [2, 5]?
Answer: Its pest or weed control at 121.5 g/ha is greater than 80%.

Question: Which pest or weed control at 121.5 g/ha [1, 3] does the source give for `COc1ccnc(C(=O)N[C@@H](C)C(=O)O[C@@H](C)C(c2ccc(F)c(C)c2)c2ccc(F)c(C)c2)c1OCOC(C)=O` [Cmpd 220] here?
Answer: The pest or weed control at 121.5 g/ha was greater than 80%.

Question: What about the pest or weed control at 121.5 g/ha [1, 4] of the same molecule?
Answer: Its pest or weed control at 121.5 g/ha is greater than 80%.

Question: And the pest or weed control at 121.5 g/ha [2, 5]?
Answer: The pest or weed control at 121.5 g/ha was greater than 80%.

Question: And the pest or weed control at 121.5 g/ha [2, 6]?
Answer: The pest or weed control at 121.5 g/ha was less than 80%.
